From publication PMC5362750, “Discovery of Potent, Selective, and Orally Bioavailable Small-Molecule Modulators of the Mediator Complex-Associated Kinases CDK8 and CDK19” (Journal of Medicinal Chemistry, 2016)

Legend:
[1] = target: T1, PRAK (Homo sapiens, UniProt Q8IW41); assay: Kinase panel (Millipore); assay type: biochemical; conditions: 1 µM, ATP at Km
T1 construct: purchased Millipore (KinaseProfiler) kinase panel

[2] = target: T2, VRK2 (Homo sapiens, UniProt Q86Y07); assay: Kinase panel (Millipore); assay type: biochemical; conditions: 1 µM, ATP at Km
T2 construct: purchased Millipore (KinaseProfiler) kinase panel

[3] = target: SAPK2A (Homo sapiens, UniProt Q16539); assay: Kinase panel (Millipore); assay type: biochemical; conditions: 1 µM, ATP at Km
[4] = target: MAPK1 (Homo sapiens, UniProt P27361); assay: Kinase panel (Millipore); assay type: biochemical; conditions: 1 µM, ATP at Km
[5] = target: ABL(Y253F) (Homo sapiens, UniProt P00519, Y253F); conditions: 1 µM, ATP at Km
[6] = target: T3, FLT4 (Homo sapiens, UniProt P35916); assay: Kinase panel (Millipore); assay type: biochemical; conditions: 1 µM, ATP at Km
T3 construct: purchased Millipore (KinaseProfiler) kinase panel

[7] = target: PKCGAMMA (Homo sapiens, UniProt P05129); assay: Kinase panel (Millipore); assay type: biochemical; conditions: 1 µM, ATP at Km
[8] = target: FAK (Homo sapiens, UniProt Q05397); assay: Kinase panel (Millipore); assay type: biochemical; conditions: 1 µM, ATP at Km
[9] = target: T4, FGFR1 (Homo sapiens, UniProt P11362); assay: Kinase panel (Millipore); assay type: biochemical; conditions: 1 µM, ATP at Km
T4 construct: purchased Millipore (KinaseProfiler) kinase panel

[10] = target: RSK2 (Homo sapiens, UniProt P51812); assay: Kinase panel (Millipore); assay type: biochemical; conditions: 1 µM, ATP at Km
[11] = target: cMET (Y1248D) (Homo sapiens, UniProt P08581, Y1230D); conditions: 1 µM, ATP at Km
[12] = target: T5, BRSK2 (Homo sapiens, UniProt Q8IWQ3); assay: Kinase panel (Millipore); assay type: biochemical; conditions: 1 µM, ATP at Km
T5 construct: purchased Millipore (KinaseProfiler) kinase panel

[13] = target: T6, PKCMU (Homo sapiens, UniProt Q15139); assay: Kinase panel (Millipore); assay type: biochemical; conditions: 1 µM, ATP at Km
T6 construct: purchased Millipore (KinaseProfiler) kinase panel

[14] = target: SYK (Homo sapiens, UniProt P43405); assay: Kinase panel (Millipore); assay type: biochemical; conditions: 1 µM, ATP at Km
[15] = target: ZIPK (Homo sapiens, UniProt O43293); assay: Kinase panel (Millipore); assay type: biochemical; conditions: 1 µM, ATP at Km
[16] = target: T7, NEK6 (Homo sapiens, UniProt Q9HC98); assay: Kinase panel (Millipore); assay type: biochemical; conditions: 1 µM, ATP at Km
T7 construct: purchased Millipore (KinaseProfiler) kinase panel

[17] = target: alpha 2C (h) (Homo sapiens, UniProt P18825); assay: biochemical; conditions: read-out: % Inhibition of Control Specific Binding
Sequence of alpha 2C (h) (P18825 whole entry): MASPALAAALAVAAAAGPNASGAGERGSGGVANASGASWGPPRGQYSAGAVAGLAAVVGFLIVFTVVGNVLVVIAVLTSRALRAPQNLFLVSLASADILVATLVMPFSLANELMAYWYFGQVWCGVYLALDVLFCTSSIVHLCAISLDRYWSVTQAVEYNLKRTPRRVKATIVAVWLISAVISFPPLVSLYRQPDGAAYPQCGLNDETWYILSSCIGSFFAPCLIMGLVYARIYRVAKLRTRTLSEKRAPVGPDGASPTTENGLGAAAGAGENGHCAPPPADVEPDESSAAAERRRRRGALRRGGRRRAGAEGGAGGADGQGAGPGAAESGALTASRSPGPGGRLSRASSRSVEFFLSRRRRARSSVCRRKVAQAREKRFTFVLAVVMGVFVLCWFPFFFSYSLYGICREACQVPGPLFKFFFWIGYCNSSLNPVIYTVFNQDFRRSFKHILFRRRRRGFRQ

[18] = target: T8, RON (Homo sapiens, UniProt Q04912); assay: Kinase panel (Millipore); assay type: biochemical; conditions: 1 µM, ATP at Km
T8 construct: purchased Millipore (KinaseProfiler) kinase panel

[19] = target: D3 (h) (Homo sapiens, UniProt P35462); assay: biochemical; conditions: read-out: % Inhibition of Control Specific Binding
[20] = target: T9, ACK1 (Homo sapiens, UniProt Q07912); assay: Kinase panel (Millipore); assay type: biochemical; conditions: 1 µM, ATP at Km
T9 construct: purchased Millipore (KinaseProfiler) kinase panel

[21] = target: FGFR1(V561M) (Homo sapiens, UniProt P11362, V561M); conditions: 1 µM, ATP at Km
[22] = target: T10, SRPK1 (Homo sapiens, UniProt Q96SB4); assay: Kinase panel (Millipore); assay type: biochemical; conditions: 1 µM, ATP at Km
T10 construct: purchased Millipore (KinaseProfiler) kinase panel

[23] = target: CK2ALPHA2 (Homo sapiens, UniProt P19784); conditions: 1 µM, ATP at Km
[24] = target: sst4 (h) (Homo sapiens, UniProt P31391); assay: CEREP binding assay; conditions: agonist radioligand, read-out: % Inhibition of Control Specific Binding
[25] = target: MST1 (Homo sapiens, UniProt Q13043); assay: Kinase panel (Millipore); assay type: biochemical; conditions: 1 µM, ATP at Km
Sequence of MST1 (Q13043 whole entry): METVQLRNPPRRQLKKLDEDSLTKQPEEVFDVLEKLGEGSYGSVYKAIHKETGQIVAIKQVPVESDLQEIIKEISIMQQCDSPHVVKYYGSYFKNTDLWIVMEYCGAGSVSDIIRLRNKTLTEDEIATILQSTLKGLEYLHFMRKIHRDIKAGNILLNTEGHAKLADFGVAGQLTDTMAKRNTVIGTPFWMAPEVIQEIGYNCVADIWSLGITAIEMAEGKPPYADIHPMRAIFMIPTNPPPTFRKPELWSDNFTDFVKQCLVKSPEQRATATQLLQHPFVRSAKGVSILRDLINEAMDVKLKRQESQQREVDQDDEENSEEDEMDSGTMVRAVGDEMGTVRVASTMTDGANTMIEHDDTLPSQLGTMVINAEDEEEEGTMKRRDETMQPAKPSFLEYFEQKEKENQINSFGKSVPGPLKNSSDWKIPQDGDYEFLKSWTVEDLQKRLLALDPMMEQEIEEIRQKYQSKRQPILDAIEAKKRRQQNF

[26] = target: T11, ULK2 (Homo sapiens, UniProt Q8IYT8); assay: Kinase panel (Millipore); assay type: biochemical; conditions: 1 µM, ATP at Km
T11 construct: purchased Millipore (KinaseProfiler) kinase panel

[27] = target: T12, GRK6 (Homo sapiens, UniProt P43250); assay: Kinase panel (Millipore); assay type: biochemical; conditions: 1 µM, ATP at Km
T12 construct: purchased Millipore (KinaseProfiler) kinase panel
T12 sequence (P43250 whole entry): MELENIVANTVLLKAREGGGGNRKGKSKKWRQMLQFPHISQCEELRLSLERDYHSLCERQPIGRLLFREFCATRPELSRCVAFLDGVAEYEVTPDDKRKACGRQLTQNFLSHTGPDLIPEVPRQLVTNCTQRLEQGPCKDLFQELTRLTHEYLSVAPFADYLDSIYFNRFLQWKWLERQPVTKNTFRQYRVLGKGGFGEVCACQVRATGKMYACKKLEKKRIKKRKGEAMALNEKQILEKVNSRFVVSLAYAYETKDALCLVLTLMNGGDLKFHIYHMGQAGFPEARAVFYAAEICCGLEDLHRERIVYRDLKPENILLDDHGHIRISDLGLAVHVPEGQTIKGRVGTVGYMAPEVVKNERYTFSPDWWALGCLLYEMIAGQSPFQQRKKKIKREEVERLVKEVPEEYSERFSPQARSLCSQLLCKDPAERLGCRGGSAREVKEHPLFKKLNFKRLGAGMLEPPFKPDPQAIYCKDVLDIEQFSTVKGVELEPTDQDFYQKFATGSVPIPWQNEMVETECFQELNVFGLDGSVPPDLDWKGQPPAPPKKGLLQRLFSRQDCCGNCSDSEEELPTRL

[28] = tested on: STAT1^SER727 phosphorylation; conditions: 30 mg/kg q.d. oral
[29] = target: A2B (h) (Homo sapiens, UniProt P29275); assay: biochemical; conditions: read-out: % Inhibition of Control Specific Binding
[30] = target: CDK2/CYCLINA (Homo sapiens, UniProt P24941); conditions: 1 µM, ATP at Km
[31] = target: T13, NLK (Homo sapiens, UniProt Q9UBE8); assay: Kinase panel (Millipore); assay type: biochemical; conditions: 1 µM, ATP at Km
T13 construct: purchased Millipore (KinaseProfiler) kinase panel

[32] = target: T14, GR (h) (Homo sapiens, UniProt P04150); assay: CEREP binding assay; conditions: agonist radioligand, read-out: % Inhibition of Control Specific Binding
T14 construct: CEREP
T14 sequence (P04150 whole entry): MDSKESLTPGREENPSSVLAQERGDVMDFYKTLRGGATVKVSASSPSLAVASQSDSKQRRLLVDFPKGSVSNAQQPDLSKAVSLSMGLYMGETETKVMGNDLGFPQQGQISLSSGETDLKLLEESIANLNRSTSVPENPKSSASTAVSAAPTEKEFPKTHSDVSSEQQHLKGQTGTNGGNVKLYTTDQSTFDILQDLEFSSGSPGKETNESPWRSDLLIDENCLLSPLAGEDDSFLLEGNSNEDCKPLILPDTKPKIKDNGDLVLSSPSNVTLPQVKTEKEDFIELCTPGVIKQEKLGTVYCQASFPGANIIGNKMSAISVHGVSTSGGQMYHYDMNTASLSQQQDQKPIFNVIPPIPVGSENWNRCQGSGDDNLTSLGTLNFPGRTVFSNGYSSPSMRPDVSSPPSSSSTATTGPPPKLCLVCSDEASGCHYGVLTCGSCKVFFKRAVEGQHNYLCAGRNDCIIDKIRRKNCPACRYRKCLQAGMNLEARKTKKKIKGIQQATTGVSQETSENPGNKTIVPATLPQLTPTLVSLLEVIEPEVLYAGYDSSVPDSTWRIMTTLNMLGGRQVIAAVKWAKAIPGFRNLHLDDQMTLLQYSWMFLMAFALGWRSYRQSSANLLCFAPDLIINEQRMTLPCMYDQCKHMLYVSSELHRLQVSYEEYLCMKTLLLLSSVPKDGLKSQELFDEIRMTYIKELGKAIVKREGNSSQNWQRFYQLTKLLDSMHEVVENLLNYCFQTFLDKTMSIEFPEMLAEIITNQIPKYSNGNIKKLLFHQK

[33] = target: CAMKIIBETA (Homo sapiens, UniProt Q13554); assay: Kinase panel (Millipore); assay type: biochemical; conditions: 1 µM, ATP at Km
[34] = target: PIM-2 (Homo sapiens, UniProt Q9P1W9); assay: Kinase panel (Millipore); assay type: biochemical; conditions: 1 µM, ATP at Km
[35] = tested on: TR (TH); conditions: 10 µM, agonist radioligand
[36] = target: T15, choline transporter (CHT1) (h) (Homo sapiens, UniProt Q9GZV3); assay: CEREP binding assay; conditions: antagonist radioligand, read-out: % Inhibition of Control Specific Binding
T15 construct: CEREP

[37] = target: PI3K BETA (Homo sapiens, UniProt P42338); assay: Kinase panel (Millipore); assay type: biochemical; conditions: 1 µM, ATP at Km
Sequence of PI3K BETA (P42338 whole entry): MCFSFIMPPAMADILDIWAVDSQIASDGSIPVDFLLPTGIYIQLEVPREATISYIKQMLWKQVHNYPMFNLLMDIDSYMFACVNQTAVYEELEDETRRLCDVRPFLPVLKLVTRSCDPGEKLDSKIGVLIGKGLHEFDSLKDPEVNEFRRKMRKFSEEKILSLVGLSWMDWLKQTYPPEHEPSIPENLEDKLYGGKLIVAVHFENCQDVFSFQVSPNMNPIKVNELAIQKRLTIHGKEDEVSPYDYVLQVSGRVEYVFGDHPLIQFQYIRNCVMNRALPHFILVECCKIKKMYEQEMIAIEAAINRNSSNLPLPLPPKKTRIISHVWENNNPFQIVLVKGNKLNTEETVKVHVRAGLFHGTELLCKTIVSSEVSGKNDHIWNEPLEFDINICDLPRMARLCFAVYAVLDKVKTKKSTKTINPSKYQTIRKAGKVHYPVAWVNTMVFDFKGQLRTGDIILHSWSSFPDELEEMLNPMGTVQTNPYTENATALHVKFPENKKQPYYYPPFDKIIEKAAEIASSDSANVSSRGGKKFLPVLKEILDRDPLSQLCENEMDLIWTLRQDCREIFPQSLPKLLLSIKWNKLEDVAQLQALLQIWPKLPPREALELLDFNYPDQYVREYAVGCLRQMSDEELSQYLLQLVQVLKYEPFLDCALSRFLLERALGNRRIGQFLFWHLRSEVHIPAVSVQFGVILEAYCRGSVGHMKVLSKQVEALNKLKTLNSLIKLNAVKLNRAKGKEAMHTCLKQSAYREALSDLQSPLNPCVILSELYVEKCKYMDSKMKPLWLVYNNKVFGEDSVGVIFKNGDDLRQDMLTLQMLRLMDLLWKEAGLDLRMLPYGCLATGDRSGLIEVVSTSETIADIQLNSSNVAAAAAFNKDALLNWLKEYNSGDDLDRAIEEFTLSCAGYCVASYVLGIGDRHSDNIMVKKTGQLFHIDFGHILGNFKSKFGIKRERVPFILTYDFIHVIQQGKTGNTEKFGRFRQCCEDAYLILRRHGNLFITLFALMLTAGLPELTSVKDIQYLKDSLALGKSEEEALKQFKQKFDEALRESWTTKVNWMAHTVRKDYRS
Sequence of PI3K BETA (P27986 whole entry partner): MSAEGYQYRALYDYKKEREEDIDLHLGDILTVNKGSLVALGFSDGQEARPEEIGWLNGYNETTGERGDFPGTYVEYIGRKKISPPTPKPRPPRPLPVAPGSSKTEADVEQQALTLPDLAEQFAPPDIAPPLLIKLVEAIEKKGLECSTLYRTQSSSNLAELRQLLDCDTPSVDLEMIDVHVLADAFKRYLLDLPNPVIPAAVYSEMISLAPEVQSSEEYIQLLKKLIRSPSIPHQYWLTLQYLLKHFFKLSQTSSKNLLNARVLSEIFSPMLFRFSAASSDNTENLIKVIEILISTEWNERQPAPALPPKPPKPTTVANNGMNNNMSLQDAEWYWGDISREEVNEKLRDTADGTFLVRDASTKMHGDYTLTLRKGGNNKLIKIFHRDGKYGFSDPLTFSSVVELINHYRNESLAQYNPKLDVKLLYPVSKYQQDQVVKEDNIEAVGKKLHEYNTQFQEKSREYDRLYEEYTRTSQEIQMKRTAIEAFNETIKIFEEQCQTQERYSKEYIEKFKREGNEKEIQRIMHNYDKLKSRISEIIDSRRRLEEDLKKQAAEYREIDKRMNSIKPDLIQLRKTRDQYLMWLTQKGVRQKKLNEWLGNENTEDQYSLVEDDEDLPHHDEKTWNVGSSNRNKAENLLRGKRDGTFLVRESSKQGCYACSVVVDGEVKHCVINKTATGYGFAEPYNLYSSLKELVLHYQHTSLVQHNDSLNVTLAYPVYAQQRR

[38] = target: JNK1ALPHA1 (Homo sapiens, UniProt P45983); assay: Kinase panel (Millipore); assay type: biochemical; conditions: 1 µM, ATP at Km
Sequence of JNK1ALPHA1 (P45983 1-384 isoform P45983-2): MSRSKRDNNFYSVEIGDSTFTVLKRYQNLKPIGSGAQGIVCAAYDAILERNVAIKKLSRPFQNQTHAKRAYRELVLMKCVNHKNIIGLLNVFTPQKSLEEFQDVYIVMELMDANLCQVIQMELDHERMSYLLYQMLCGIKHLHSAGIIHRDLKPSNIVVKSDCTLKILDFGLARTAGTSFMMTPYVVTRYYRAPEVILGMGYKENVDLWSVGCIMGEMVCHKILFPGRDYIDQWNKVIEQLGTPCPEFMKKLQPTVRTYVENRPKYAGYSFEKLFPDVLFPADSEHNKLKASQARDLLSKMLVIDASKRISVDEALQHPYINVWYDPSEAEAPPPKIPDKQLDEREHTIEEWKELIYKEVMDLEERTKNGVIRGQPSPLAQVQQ

[39] = target: T16, LOK (Homo sapiens, UniProt O94804); assay: Kinase panel (Millipore); assay type: biochemical; conditions: 1 µM, ATP at Km
T16 construct: purchased Millipore (KinaseProfiler) kinase panel

[40] = target: T17, CCR2 (h) (Homo sapiens, UniProt P41597); assay: CEREP binding assay; conditions: agonist radioligand, read-out: % Inhibition of Control Specific Binding
T17 construct: purchased Millipore (KinaseProfiler) kinase panel
T17 sequence (P41597 whole entry): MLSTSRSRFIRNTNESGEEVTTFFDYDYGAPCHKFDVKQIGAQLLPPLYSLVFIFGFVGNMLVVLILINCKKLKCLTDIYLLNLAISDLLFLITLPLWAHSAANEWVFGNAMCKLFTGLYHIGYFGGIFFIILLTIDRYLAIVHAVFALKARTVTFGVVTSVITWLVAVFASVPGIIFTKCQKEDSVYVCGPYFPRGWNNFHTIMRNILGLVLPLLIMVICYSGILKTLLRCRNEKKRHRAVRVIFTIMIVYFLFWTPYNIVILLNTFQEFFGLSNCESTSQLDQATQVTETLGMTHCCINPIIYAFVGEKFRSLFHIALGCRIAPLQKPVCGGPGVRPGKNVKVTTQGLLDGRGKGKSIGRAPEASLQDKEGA

[41] = target: PKCBII (Homo sapiens, UniProt P05771); assay: Kinase panel (Millipore); assay type: biochemical; conditions: 1 µM, ATP at Km
[42] = target: cMET (Y1248H) (Homo sapiens, UniProt P08581, Y1230H); conditions: 1 µM, ATP at Km
[43] = target: T18, RSE (Homo sapiens, UniProt Q06418); assay: Kinase panel (Millipore); assay type: biochemical; conditions: 1 µM, ATP at Km
T18 construct: purchased Millipore (KinaseProfiler) kinase panel

Structure (SMILES): Cn1ncc2cc(-c3cnc(N)c(Cl)c3N3CCC4(CCNC4=O)CC3)ccc21 [Compound 109, 8-(2-Amino-3-chloro-5-(1-methyl-1H-indazol-5-yl)pyridin-4-yl)-2,8-diazaspiro[4.5]decan-1-one]
- % effect [1]: 13%
- % effect [2]: 3%
- % effect [3]: -6%
- % effect [4]: 7%
- % effect [5]: 1%
- % effect [6]: -38%
- % effect [7]: -6%
- % effect [8]: 6%
- % effect [9]: 7%
- % effect [10]: -11%
- % effect [11]: -1%
- % effect [12]: 0%
- % effect [13]: 5%
- % effect [14]: 2%
- % effect [15]: 6%
- % effect [16]: 4%
- inhibition at 10 µM [17]: 25%
- % effect [18]: -1%
- inhibition at 10 µM [19]: 7%
- % effect [20]: -11%
- % effect [21]: -25%
- % effect [22]: -8%
- % effect [23]: -13%
- inhibition at 10 µM [24]: 9%
- % effect [25]: 4%
- % effect [26]: 12%
- % effect [27]: 5%
- duration of reduced STAT1 SER727 phosphorylation after the last dose [28]: more than 6 h
- inhibition at 10 µM [29]: -7%
- % effect [30]: 1%
- % effect [31]: -5%
- inhibition at 10 µM [32]: -1%
- % effect [33]: 19%
- % effect [34]: -1%
- % Inhibition of Control Specific Binding [35]: -13%
- inhibition at 10 µM [36]: 4%
- % effect [37]: 2%
- % effect [38]: -6%
- % effect [39]: 11%
- inhibition at 10 µM [40]: -9%
- % effect [41]: 3%
- % effect [42]: -5%
- % effect [43]: 1%
